Experimental data reported in ChEMBL document CHEMBL5653631, “A Potent and Selective ULK1 Inhibitor Suppresses Autophagy and Sensitizes Cancer Cells to Nutrient Stress” (iScience, 2018).
One block for each compound: values may come before it.

How the values were obtained:
[1] = target: T1, Protein kinase C zeta type (Homo sapiens) (UniProt Q05513); test: Inhibition of human recombinant PKCz at 500 nM related to control ULK1
T1 sequence (whole entry): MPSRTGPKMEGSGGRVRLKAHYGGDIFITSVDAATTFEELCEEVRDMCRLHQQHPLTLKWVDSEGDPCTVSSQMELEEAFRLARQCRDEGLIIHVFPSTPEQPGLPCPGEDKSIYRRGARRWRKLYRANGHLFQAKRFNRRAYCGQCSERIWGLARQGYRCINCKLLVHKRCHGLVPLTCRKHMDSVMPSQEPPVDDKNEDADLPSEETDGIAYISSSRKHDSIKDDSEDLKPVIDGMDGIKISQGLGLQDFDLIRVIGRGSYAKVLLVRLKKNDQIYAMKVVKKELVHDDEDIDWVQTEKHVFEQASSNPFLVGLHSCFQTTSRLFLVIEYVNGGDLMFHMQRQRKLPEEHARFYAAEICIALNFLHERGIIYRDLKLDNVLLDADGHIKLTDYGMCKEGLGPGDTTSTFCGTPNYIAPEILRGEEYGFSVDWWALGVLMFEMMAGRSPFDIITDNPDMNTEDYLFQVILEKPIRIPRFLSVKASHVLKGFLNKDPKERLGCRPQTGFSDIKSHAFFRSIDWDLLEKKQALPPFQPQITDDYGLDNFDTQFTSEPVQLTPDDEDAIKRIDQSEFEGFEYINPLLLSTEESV

[2] = target: Death-associated protein kinase 1 (Homo sapiens) (UniProt P53355); test: Inhibition of human recombinant DAPK1 at 500 nM related to control ULK1
[3] = target: Cyclin-dependent kinase-like 1 (Homo sapiens) (UniProt Q00532); test: Inhibition of human recombinant CDKL1 at 500 nM related to control ULK1
[4] = target: T2, Serine/threonine-protein kinase NLK (Homo sapiens) (UniProt Q9UBE8); test: Inhibition of human recombinant NLK at 500 nM in presence of ATP by radiometric assay relative to control
T2 sequence (whole entry): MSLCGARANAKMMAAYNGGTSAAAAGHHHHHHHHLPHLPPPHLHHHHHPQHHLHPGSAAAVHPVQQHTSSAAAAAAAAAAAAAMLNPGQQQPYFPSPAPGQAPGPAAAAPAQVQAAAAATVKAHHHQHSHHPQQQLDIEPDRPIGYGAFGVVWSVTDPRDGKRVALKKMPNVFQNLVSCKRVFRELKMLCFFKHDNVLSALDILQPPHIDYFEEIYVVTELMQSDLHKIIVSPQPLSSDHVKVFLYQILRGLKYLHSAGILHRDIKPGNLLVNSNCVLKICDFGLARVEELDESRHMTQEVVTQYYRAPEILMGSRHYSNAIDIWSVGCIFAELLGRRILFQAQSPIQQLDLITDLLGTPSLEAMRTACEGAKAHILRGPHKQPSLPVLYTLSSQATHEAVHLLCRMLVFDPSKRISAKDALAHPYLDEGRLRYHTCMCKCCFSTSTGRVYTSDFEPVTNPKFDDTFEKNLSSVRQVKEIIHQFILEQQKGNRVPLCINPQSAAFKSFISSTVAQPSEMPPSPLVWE

[5] = target: Serine/threonine-protein kinase pim-3 (Homo sapiens) (UniProt Q86V86); test: Inhibition of human recombinant PIM3 at 40 nM in presence of ATP by radiometric assay relative to control
[6] = target: Calcium/calmodulin-dependent protein kinase type 1D (Homo sapiens) (UniProt Q8IU85); test: Inhibition of human recombinant CaMK1d at 40 nM in presence of ATP by radiometric assay relative to control
[7] = target: Cell division cycle 7-related protein kinase (Homo sapiens) (UniProt O00311); test: Inhibition of human recombinant CDC7 at 40 nM related to control ULK1
[8] = target: T3, Dual specificity mitogen-activated protein kinase kinase 6 (Homo sapiens) (UniProt P52564); test: Inhibition of human recombinant MAP2K6 at 15 nM in presence of ATP by radiometric assay relative to control
T3 sequence (whole entry): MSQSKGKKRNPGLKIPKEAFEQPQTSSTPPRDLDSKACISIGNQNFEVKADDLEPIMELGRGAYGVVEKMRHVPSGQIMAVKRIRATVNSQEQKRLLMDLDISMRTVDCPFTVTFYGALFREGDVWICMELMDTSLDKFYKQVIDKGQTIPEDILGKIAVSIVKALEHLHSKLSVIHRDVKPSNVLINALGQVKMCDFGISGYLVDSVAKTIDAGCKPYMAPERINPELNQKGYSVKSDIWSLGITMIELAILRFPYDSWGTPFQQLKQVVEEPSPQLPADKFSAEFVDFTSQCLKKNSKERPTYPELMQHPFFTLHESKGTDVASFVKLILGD

Homo sapiens = species: Homo sapiens; test: Inhibition of human recombinant KHS1 at 15 nM related to control ULK1
[9] = target: T4, Serine/threonine-protein kinase ULK3 (Homo sapiens) (UniProt Q6PHR2); test: Inhibition of human recombinant ULK3 at 15 nM related to control ULK1
T4 sequence (whole entry): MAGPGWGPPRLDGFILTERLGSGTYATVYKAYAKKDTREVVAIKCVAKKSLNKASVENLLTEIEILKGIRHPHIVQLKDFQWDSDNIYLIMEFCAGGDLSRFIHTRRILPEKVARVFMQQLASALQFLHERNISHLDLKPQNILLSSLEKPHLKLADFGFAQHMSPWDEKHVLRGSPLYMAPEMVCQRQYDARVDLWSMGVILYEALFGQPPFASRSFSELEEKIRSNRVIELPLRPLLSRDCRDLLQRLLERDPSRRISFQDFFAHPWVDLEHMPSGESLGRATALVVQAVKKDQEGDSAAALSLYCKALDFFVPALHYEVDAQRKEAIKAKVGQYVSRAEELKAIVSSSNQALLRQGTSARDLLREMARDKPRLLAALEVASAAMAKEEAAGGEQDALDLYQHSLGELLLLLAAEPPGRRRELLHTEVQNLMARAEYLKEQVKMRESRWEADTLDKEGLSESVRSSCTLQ

Chain of Calcium/calmodulin-dependent protein kinase type 1D (Homo sapiens) (Q8IU85 whole entry, looked up): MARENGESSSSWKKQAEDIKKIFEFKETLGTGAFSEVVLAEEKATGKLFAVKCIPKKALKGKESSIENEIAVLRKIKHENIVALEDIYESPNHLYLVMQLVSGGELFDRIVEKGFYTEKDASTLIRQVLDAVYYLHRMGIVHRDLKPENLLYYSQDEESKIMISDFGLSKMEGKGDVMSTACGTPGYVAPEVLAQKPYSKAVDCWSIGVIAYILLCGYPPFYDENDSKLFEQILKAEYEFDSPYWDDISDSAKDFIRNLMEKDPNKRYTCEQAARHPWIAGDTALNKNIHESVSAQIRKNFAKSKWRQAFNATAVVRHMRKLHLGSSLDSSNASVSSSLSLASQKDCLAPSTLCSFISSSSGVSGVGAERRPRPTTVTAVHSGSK
Chain of Cell division cycle 7-related protein kinase (Homo sapiens) (O00311 whole entry, looked up): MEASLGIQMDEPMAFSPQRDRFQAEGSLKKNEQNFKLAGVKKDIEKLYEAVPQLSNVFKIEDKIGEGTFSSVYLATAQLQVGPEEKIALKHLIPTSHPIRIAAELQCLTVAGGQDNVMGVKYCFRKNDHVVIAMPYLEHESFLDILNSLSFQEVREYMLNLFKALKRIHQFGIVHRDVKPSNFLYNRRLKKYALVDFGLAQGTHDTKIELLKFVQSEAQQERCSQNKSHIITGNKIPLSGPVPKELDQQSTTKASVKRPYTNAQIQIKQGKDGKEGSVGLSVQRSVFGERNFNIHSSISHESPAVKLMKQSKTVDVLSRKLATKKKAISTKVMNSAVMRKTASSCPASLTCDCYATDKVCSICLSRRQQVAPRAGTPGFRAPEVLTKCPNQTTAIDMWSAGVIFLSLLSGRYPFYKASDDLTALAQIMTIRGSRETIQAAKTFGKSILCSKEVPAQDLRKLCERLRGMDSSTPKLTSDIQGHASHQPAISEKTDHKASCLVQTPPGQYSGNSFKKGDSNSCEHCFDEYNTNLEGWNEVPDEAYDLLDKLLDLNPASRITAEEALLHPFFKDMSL
Chain of Death-associated protein kinase 1 (Homo sapiens) (P53355 whole entry, looked up): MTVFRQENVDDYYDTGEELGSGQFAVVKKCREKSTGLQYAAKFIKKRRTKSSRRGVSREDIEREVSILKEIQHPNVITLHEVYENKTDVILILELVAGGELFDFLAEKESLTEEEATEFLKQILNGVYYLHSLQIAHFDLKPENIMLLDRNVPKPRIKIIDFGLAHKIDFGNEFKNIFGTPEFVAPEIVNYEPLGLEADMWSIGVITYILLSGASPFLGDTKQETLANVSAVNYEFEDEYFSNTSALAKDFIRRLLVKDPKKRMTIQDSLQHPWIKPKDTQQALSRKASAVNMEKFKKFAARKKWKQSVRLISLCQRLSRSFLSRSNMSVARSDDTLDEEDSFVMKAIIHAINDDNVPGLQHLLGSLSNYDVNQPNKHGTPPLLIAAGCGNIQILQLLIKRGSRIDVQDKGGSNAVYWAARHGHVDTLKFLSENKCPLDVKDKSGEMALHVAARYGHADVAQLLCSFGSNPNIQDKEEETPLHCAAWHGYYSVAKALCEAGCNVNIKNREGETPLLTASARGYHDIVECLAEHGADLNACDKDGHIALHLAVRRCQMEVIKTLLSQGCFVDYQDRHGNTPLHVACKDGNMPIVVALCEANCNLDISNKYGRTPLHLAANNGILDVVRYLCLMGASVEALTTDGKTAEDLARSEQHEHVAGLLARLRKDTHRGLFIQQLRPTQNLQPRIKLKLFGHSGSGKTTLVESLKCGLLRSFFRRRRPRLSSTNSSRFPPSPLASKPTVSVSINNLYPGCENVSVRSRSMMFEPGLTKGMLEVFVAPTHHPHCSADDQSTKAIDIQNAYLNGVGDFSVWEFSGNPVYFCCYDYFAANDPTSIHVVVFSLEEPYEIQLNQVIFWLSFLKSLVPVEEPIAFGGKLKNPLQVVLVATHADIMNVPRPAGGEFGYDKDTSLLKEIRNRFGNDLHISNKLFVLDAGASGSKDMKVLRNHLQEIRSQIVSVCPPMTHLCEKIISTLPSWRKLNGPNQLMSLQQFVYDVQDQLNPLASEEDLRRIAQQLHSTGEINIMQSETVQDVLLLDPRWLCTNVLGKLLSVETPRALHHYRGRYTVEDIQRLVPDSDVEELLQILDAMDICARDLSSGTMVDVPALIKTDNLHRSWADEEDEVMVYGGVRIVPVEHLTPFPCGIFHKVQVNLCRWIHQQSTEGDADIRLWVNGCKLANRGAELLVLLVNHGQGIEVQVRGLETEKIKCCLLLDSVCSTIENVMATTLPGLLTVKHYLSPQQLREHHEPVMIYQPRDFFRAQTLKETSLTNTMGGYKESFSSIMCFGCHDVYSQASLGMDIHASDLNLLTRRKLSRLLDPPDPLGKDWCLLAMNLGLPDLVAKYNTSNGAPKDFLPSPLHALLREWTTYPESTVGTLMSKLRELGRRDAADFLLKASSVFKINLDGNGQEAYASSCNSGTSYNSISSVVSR
Chain of Cyclin-dependent kinase-like 1 (Homo sapiens) (Q00532 whole entry): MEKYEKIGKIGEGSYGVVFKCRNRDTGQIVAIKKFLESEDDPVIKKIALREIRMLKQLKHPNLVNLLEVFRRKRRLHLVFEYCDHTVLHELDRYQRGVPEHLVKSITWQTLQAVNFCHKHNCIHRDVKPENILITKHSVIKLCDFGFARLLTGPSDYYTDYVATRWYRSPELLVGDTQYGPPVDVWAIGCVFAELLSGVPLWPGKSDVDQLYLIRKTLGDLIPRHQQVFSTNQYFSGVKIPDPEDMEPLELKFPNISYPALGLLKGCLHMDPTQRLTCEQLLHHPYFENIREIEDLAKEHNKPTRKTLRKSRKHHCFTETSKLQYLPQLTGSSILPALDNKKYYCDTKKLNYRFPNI

fold change (FC) [1]: 0
fold change (FC) [3]: 0
inhibition [4]: 4%
SMILES: CNC(=O)c1ccccc1Oc1nc(Nc2cc(OC)c(OC)c(OC)c2)ncc1Br
fold change (FC) [2]: 0

inhibition [5]: 0%
inhibition [6]: 0%
fold change (FC) [7]: 0.53
SMILES: O=C(N[C@@H](C1CC1)C(F)(F)F)c1cc(-c2cnn3cc(-c4ccc(F)cc4)cnc23)cs1

inhibition [8]: 5%
fold change (FC) (Homo sapiens): 0.16
fold change (FC) [9]: 0.45
SMILES: CC(C)[C@H](NC(=O)c1cc(-c2cnn3cc(-c4ccc(OCCN5CCCCC5)cc4)cnc23)cs1)C(F)(F)F
